How the values were obtained:
human NK1 receptor = biological target: T1, human NK1 receptor (Homo sapiens, UniProt P25103); experiment: FLIPR assay, inhibition of human NK1 receptor activation (intracellular Ca2+); format: cell-based; details: CHO cells with human NK1 receptor, agonist Substance P; pKB converted from IC50
T1 construct: expressed in transfected cells; AstraZeneca R&D Wilmington), pRcCMV vector
Method: (§1) Chinese Hamster Ovary (CHO) K1 cells (obtained from ATCC) were stably transfected with the human NK2 receptor (hNK2R cDNA in pRc/CMV, Invitrogen) or the human NK3 receptor (hNK3R in pcDNA 3.1/Hygro (+)/IRES/CD8, Invitrogen vector modified at AstraZeneca EST-Bio UK, Alderley Park). The cells were transfected with the cationic lipid reagent LIPOFECTAMINE™ (Invitrogen) and selection was performed with Geneticin (G418, Invitrogen) at 1 mg/ml for the hNK2R transfected cells and with Hygromycin (Invitrogen) at 500 μg/ml for the hNK3R transfected cells. Single cell clones were collected by aid of Fluorescence Activated Cell Sorter (FACS), tested for functionality in a FLIPR assay (see below), expanded in culture and cryopreserved for future use. […]
(§2) The activity of a compound of the invention to inhibit NK1/NK2/NK3 receptor activation measured as NK1/NK2/NK3 receptor mediated increase in intracellular Ca^2+ was assessed by the following procedure:
(§3) CHO cells stably transfected with human NK1, NK2 or NK3 receptors were plated in black walled/clear bottomed 96-well plates (Costar 3904) at 3.5×10^4 cells per well and grown for approximately 24 h in normal growth media in a 37° C. […] The response was measured as the peak relative fluorescence after agonist addition and IC50s were calculated from ten-point concentration-response curves for each compound. […]

[1] = Metabolic stability in liver microsomes (intrinsic clearance); format: in vitro ADME; details: human, pH 7.4, HLM
Method: The rate of biotransformation can be measured as either metabolite(s) formation or the rate of disappearance of the parent compound. The experimental design involves incubation of low concentrations of substrate (usually 1.0 μM) with liver microsomes (usually 0.5 mg/ml) and taking out aliquotes at varying time points (usually 0, 5, 10, 15, 20, 30, 40 min.). The test compound is usually dissolved in DMSO. The DMSO concentration in the incubation mixture is usually 0.1% or less since more solvent can drastically reduce the activities of some CYP450s. Incubations are done in 100 mM potassium phosphate buffer, pH 7.4 and at 37° C. Acetonitrile or methanol is used to stop the reaction. The parent compound is analysed by HPLC-MS. From the calculated half-life, t1/2, the intrinsic clearance, Clint, is estimated by taking microsomal protein concentration and liver weight into account.

CYP3A4 = CYP3A4 (Homo sapiens, UniProt P08684); experiment: CYP3A4 inhibition according to Bapiro et al; format: in vitro ADME
CYP3A4, sequence (P08684 whole entry): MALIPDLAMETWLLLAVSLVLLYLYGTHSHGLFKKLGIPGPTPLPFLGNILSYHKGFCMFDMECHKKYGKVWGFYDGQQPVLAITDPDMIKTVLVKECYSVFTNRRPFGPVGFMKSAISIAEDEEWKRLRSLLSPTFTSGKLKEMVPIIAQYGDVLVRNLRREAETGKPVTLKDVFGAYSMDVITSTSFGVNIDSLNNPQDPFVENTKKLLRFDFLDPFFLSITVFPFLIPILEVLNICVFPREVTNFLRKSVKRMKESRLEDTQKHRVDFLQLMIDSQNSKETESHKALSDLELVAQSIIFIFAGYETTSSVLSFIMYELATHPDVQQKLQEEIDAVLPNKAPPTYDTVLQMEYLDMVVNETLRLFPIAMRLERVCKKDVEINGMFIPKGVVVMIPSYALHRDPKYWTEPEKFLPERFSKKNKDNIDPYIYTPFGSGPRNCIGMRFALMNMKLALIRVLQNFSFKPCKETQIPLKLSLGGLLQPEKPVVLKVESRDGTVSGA
Method: The IC50 values tested according to Bapiro et al; Drug Metab. Dispos. 29, 30-35 (2001) were generally greater than 15 μM.

human NK3 receptor = biological target: T2, human NK3 receptor (Homo sapiens, UniProt P29371); experiment: FLIPR assay, inhibition of human NK3 receptor activation (intracellular Ca2+); format: cell-based; details: CHO cells with human NK3 receptor, agonist Pro-7-NKB; pKB converted from IC50
T2 construct: expressed in transfected cells
T2 sequence (P29371 1-465): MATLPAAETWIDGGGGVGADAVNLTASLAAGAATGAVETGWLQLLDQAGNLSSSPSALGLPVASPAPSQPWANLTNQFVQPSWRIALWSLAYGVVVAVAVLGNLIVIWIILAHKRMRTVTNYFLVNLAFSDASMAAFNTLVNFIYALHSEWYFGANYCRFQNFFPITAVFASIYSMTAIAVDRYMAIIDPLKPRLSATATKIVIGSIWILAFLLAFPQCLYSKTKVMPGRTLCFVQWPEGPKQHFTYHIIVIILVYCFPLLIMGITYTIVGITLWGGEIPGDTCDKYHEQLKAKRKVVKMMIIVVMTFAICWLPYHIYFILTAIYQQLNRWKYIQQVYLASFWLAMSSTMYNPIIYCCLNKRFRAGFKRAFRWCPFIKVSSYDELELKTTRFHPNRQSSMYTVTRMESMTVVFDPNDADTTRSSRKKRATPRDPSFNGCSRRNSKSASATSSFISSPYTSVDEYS
Method: as §1, §2, §3

[2] = biological target: hERG-encoded potassium channel (Homo sapiens, UniProt Q12809); experiment: Activity against hERG, planar-array-based voltage clamp; format: cell-based
hERG-encoded potassium channel, sequence (Q12809 whole entry): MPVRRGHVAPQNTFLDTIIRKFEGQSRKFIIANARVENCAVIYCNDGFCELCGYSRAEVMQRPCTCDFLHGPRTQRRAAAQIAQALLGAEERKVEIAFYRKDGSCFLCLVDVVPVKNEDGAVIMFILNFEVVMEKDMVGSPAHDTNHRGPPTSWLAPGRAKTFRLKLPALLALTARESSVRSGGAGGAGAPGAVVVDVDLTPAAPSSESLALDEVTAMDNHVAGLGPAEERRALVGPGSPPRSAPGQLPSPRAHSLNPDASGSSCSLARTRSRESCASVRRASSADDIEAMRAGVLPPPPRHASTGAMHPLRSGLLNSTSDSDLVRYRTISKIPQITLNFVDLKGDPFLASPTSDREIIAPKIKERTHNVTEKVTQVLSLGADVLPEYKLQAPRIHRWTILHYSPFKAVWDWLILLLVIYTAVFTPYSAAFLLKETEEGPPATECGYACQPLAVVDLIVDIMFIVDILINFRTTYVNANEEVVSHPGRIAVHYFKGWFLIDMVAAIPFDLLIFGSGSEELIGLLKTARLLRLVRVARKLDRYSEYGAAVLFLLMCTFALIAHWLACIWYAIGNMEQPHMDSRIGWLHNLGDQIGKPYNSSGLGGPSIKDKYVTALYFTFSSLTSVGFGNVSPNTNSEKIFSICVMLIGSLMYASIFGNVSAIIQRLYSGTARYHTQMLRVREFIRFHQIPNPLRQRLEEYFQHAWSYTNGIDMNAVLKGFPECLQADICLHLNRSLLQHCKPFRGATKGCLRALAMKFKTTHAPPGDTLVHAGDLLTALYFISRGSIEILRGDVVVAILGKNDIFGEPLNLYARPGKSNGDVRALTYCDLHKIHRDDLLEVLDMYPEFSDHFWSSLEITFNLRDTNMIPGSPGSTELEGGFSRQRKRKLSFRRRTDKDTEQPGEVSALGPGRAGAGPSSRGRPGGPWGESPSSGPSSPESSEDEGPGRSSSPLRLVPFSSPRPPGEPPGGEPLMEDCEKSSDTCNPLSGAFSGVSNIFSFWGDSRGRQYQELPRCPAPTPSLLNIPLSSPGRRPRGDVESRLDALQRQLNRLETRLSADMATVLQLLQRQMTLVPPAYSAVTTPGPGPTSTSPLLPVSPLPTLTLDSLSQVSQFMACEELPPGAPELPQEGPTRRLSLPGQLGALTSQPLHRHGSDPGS
Source text: The activity of compounds according to formula I against the hERG-encoded potassium channel can be determined according to Kiss L, et al. Assay Drug Dev Technol. 1 (2003), 127-35: “High throughput ion-channel pharmacology: planar-array-based voltage clamp”.

human NK2 receptor = biological target: T3, human NK2 receptor (Homo sapiens, UniProt P21452); experiment: FLIPR assay, inhibition of human NK2 receptor activation (intracellular Ca2+); format: cell-based; details: CHO cells with human NK2 receptor, agonist NKA; pKB converted from IC50
T3 construct: expressed in transfected cells
T3 sequence (P21452 1-398): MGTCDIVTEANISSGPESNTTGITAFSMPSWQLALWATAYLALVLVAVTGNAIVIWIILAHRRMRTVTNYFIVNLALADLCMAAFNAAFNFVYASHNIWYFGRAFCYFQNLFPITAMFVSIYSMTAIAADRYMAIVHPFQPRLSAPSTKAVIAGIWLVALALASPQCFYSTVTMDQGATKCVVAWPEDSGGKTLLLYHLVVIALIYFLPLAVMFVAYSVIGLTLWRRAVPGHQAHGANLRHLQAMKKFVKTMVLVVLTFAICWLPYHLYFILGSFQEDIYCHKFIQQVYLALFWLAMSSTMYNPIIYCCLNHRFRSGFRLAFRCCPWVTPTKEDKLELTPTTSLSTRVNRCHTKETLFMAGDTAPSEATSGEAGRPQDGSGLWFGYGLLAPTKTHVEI
Method: as §1, §2, §3

T1 sequence (P25103 whole entry): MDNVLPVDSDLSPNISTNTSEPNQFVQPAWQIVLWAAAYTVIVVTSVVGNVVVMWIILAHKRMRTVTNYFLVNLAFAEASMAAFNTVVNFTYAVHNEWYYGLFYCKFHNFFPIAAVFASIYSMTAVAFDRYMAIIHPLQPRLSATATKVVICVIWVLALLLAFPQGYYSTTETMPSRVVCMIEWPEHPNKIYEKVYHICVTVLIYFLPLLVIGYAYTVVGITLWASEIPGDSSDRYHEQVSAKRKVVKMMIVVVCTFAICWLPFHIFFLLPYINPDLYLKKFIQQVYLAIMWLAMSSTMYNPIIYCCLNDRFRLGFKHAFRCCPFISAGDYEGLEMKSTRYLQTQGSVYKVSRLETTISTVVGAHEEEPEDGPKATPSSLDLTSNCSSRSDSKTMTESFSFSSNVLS

Kb (human NK1 receptor): 10 nM | microsomal CLint at 1 μM [1]: 36 µL/min/mg | IC50 (CYP3A4): 18300 nM | Kb (human NK3 receptor): 63.1 nM | Kb (human NK2 receptor): 31.6 nM
Compound: CC(C)C(=O)N1CCN(C2CN(CC[C@H](CN(C)C(=O)c3cc(Cl)cc(C(F)(F)F)c3)c3ccc(F)cc3)C2)CC1 [Ex 2, 3-Chloro-N-{(2S)-2-(4-fluorophenyl)-4-[3-(4-isobutyrylpiperazin-1-yl)azetidin-1-yl]butyl}-N-methyl-5-(trifluoromethyl)benzamide]
IC50 [2]: 6600 nM

Source: US20070270400A1, “New compounds 303” (priority 2006, published 2007)
